Source: patent US7479493B2, “Substituted benzyl amine compounds” (Janssen Pharmaceutica N.V., priority 2006, dated 2009)
pKi: −log10 of the molar value.

Experiments:
[1] = molecular target: Rat SERT (Rattus norvegicus, UniProt P31652); experiment: biochemical
Protocol: The supernatant was removed and re-centrifuged at 15,000 rpm for 30 min. […] Membranes were incubated with 0.6 nM [^3H]-Citalopram plus/minus test compounds for 60 min at 25° C. and harvested by rapid filtration over GF/C glass fiber filters (pretreated with 0.3% polyethylenimine) followed by four washes with ice-cold buffer. Nonspecific binding was defined in the presence of 100 μM fluoxetine.

[2] = molecular target: cloned human H3 receptor (Homo sapiens, UniProt Q9Y5N1); experiment: H3 Receptor Binding; details: cloned human H3 receptor stably expressed in SK-N-MC cells
cloned human H3 receptor, sequence (Q9Y5N1 whole entry): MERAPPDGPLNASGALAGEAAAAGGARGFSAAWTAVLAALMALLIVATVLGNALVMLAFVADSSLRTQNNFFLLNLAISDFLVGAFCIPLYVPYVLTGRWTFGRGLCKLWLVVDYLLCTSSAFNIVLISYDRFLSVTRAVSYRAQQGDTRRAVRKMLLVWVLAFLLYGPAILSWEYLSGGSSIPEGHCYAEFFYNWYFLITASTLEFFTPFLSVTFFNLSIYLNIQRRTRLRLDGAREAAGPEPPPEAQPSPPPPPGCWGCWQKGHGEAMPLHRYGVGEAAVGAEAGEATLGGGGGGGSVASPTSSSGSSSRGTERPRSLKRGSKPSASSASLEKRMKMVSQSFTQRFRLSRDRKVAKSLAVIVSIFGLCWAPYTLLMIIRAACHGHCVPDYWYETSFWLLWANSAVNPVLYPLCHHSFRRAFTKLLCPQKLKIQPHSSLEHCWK

Rat SERT, sequence (P31652 whole entry): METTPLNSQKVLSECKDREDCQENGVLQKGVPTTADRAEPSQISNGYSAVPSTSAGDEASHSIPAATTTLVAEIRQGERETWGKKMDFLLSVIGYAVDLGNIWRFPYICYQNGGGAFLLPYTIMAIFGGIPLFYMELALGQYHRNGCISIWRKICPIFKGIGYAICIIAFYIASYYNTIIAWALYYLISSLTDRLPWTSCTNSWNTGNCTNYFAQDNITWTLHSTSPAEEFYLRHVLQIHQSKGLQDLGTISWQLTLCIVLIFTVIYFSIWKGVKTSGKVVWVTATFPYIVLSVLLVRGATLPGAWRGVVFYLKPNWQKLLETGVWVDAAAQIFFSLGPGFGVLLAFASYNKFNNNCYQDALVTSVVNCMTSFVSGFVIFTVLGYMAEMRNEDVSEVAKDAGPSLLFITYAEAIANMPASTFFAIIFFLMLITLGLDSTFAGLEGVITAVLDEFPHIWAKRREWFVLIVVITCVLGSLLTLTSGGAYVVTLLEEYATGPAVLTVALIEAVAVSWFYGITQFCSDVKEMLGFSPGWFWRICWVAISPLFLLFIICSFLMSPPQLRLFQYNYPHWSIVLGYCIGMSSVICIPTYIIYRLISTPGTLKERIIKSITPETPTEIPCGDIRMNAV

Row | Compound | pKi [1] | pKi [2]
1 | CNCc1cc(C(=O)N2CCN(C3CC3)CC2)ccc1Oc1ccc(C)nc1 [Example 20, (4-Cyclopropyl-piperazin-1-yl)-[3-methylaminomethyl-4-(6-methyl-pyridin-3-yloxy)-phenyl]-methanone] | 6.72 | 7.23
2 | CNCc1cc(C(=O)N2CCN(C3CC3)CC2)ccc1Oc1ccc(F)c(Cl)c1 [Example 21, [4-(3-Chloro-4-fluoro-phenoxy)-3-methylaminomethyl-phenyl]-(4-cyclopropyl-piperazin-1-yl)-methanone] | 7.72 | 7.49
3 | CNCc1cc(C(=O)N2CCN(C3CC3)CC2)ccc1Oc1ccc(Cl)cc1F [Example 22, [4-(4-Chloro-2-fluoro-phenoxy)-3-methylaminomethyl-phenyl]-(4-cyclopropyl-piperazin-1-yl)-methanone] | 7.68 | 7.74
4 | CNCc1cc(C(=O)N2CCC(N3CCOCC3)CC2)ccc1Oc1ccc(SC)cc1 [Example 23, [3-Methylaminomethyl-4-(4-methylsulfanyl-phenoxy)-phenyl]-(4-morpholin-4-yl-piperidin-1-yl)-methanone] | 8.52 | 7.30
5 | CNCc1cc(C(=O)N2CC[C@H](N(C)C)C2)ccc1Oc1ccc(SC)cc1 [Example 25, (S)-(3-Dimethylamino-pyrrolidin-1-yl)-[3-methylaminomethyl-4-(4-methylsulfanyl-phenoxy)-phenyl]-methanone] | 9.05 | 8.15
6 | CNCc1cc(C(=O)NCCN(C)C)ccc1Oc1cccc(Cl)c1 [Example 26, 4-(3-Chloro-phenoxy)-N-(2-dimethylamino-ethyl)-3-methylaminomethyl-benzamide] | 8.52 | 7.00
7 | CNCc1cc(C(=O)N2CCN(C3CC3)CC2)ccc1Sc1ccc(Cl)cc1 [Example 28, [4-(4-Chloro-phenylsulfanyl)-3-methylaminomethyl-phenyl]-(4-cyclopropyl-piperazin-1-yl)-methanone] | – | 6.82
8 | CNCc1cc(C(=O)N2CCN(C3CC3)CC2)ccc1Sc1ccccn1 [Example 29, (4-Cyclopropyl-piperazin-1-yl)-[3-methylaminomethyl-4-(pyridin-2-ylsulfanyl)-phenyl]-methanone] | – | 6.77
9 | CNCc1ccc(C(=O)N2CCN(C3CC3)CC2)cc1Oc1ccc(Cl)c(Cl)c1 [Example 39, (4-Cyclopropyl-piperazin-1-yl)-[3-(3,4-dichloro-phenoxy)-4-methylaminomethyl-phenyl]-methanone] | 7.77 | 7.82
10 | CNCc1cc(N2CCN(C(C)C)CC2)ccc1Oc1ccc(SC)cc1 [Example 40, [5-(4-Isopropyl-piperazin-1-yl)-2-(4-methylsulfanyl-phenoxy)-benzyl]-methyl-amine] | 10.00 | 8.15
11 | CNCc1cc(N2CCN(C)CC2)ccc1Oc1ccc(SC)cc1 [Example 41, Methyl-[5-(4-methyl-piperazin-1-yl)-2-(4-methylsulfanyl-phenoxy)-benzyl]-amine] | 9.40 | 6.68
12 | CNCc1cc(N2CCN(c3ccncc3)CC2)ccc1Oc1ccc(SC)cc1 [Example 43, Methyl-[2-(4-methylsulfanyl-phenoxy)-5-(4-pyridin-4-yl-piperazin-1-yl)-benzyl]-amine] | 9.15 | 6.96
13 | CNCc1cc(N2CCN(C(C)C)CC2=O)ccc1Oc1ccc(Cl)c(Cl)c1 [Example 50, 1-[4-(3,4-Dichloro-phenoxy)-3-methylaminomethyl-phenyl]-4-isopropyl-piperazin-2-one] | 8.15 | 6.82
14 | CNCc1cc(N2CCCN(C(C)C)CC2)ccc1Oc1ccc(SC)cc1 [Example 52, [5-(4-Isopropyl-[1,4]diazepan-1-yl)-2-(4-methylsulfanyl-phenoxy)-benzyl]-methyl-amine] | 9.00 | 8.10
15 | Cc1ccc(Oc2cc(C(=O)N3CCN(C(C)C)CC3)ccc2CN2CCOCC2)c(C)n1 [Example 83, [3-(2,6-Dimethyl-pyridin-3-yloxy)-4-morpholin-4-ylmethyl-phenyl]-(4-isopropyl-piperazin-1-yl)-methanone] | – | 7.68
16 | COCCN(CCOC)Cc1ccc(C(=O)N2CCC(N(C)C)CC2)cc1Oc1cccnc1 [Example 86, [4-{[Bis-(2-methoxy-ethyl)-amino]-methyl}-3-(pyridin-3-yloxy)-phenyl]-(4-dimethylamino-piperidin-1-yl)-methanone] | – | 6.70

More lines, in order of rising pKi [2], values ahead:

Row | pKi [1] | pKi [2] | Compound
17 | 9.40 | 5.26 | CNCc1cc(N2CCNCC2=O)ccc1Oc1ccc(SC)cc1 [Example 48, 1-[3-Methylaminomethyl-4-(4-methylsulfanyl-phenoxy)-phenyl]-piperazin-2-one]
18 | – | 5.35 | CN(C)Cc1ccc(C(=O)N2CCCCC2)cc1Oc1ccccc1 [Example 84, (4-Dimethylaminomethyl-3-phenoxy-phenyl)-piperidin-1-yl-methanone]
19 | – | 5.72 | CNCCNC(=O)c1ccc(CN(C)C)c(Oc2cccnc2)c1 [Example 89, 4-Dimethylaminomethyl-N-(2-methylamino-ethyl)-3-(pyridin-3-yloxy)-benzamide]
20 | 8.70 | 6.40 | CNCc1cc(N2CCN(C(C)C)CC2=O)ccc1Oc1ccc(SC)cc1 [Example 49, 4-Isopropyl-1-[3-methylaminomethyl-4-(4-methylsulfanyl-phenoxy)-phenyl]-piperazin-2-one]
21 | – | 6.55 | CC(C)N1CCN(Cc2ccc(C(=O)N3CCCCC3)cc2Oc2ccccc2)CC1 [Example 87, [4-(4-Isopropyl-piperazin-1-ylmethyl)-3-phenoxy-phenyl]-piperidin-1-yl-methanone]
22 | – | 6.66 | CC(C)N1CCN(Cc2ccc(C(=O)N3CCCCC3)cc2Oc2cccnc2)CC1 [Example 88, [4-(4-Isopropyl-piperazin-1-ylmethyl)-3-(pyridin-3-yloxy)-phenyl]-piperidin-1-yl-methanone]
23 | – | 6.70 | COCCN(CCOC)Cc1ccc(C(=O)N2CCN(C3CC3)CC2)cc1Oc1ccc(C)nc1C [Example 82, [4-{[Bis-(2-methoxy-ethyl)-amino]-methyl}-3-(2,6-dimethyl-pyridin-3-yloxy)-phenyl]-(4-cyclopropyl-piperazin-1-yl)-methanone]
24 | 9.30 | 6.80 | CNCc1cc(N2CCN(CCF)CC2)ccc1Oc1ccc(SC)cc1 [Example 44, [5-[4-(2-Fluoro-ethyl)-piperazin-1-yl]-2-(4-methylsulfanyl-phenoxy)-benzyl]-methyl-amine]
25 | 9.00 | 7.12 | CNCc1cc(N2CCN(C3CC3)CC2)ccc1Oc1ccc(SC)cc1 [Example 45, [5-(4-Cyclopropyl-piperazin-1-yl)-2-(4-methylsulfanyl-phenoxy)-benzyl]-methyl-amine]
26 | – | 7.24 | COc1cccc(Oc2ccc(C(=O)N3CCN(C(C)C)CC3)cc2CN(C)C(=O)OC(C)(C)C)c1 [Example 91, [5-(4-Isopropyl-piperazine-1-carbonyl)-2-(3-methoxy-phenoxy)-benzyl]-methyl-carbamic acid tert-butyl ester]
27 | 8.40 | 7.31 | CNCc1cc(N2CCN(C3CC3)CC2)ccc1Oc1ccc(Cl)c(Cl)c1 [Example 46, [5-(4-Cyclopropyl-piperazin-1-yl)-2-(3,4-dichloro-phenoxy)-benzyl]-methyl-amine]
28 | 9.10 | 7.32 | CNCc1cc(C(=O)NCCCN(C)C)ccc1Oc1cccc(Cl)c1 [Example 27, 4-(3-Chloro-phenoxy)-N-(3-dimethylamino-propyl)-3-methylaminomethyl-benzamide]
29 | – | 7.35 | CN(C)Cc1ccc(C(=O)NCCN(C)C2CC2)cc1Oc1cccnc1 [Example 90, N-[2-(Cyclopropyl-methyl-amino)-ethyl]-4-dimethylaminomethyl-3-(pyridin-3-yloxy)-benzamide]
30 | 6.89 | 7.51 | CNCc1cc(C(=O)N2CCN(C3CC3)CC2)ccc1Oc1cccc(Cl)c1F [Example 24, [4-(3-Chloro-2-fluoro-phenoxy)-3-methylaminomethyl-phenyl]-(4-cyclopropyl-piperazin-1-yl)-methanone]
31 | 8.70 | 7.55 | CNCc1cc(N2CCC(N3CCOCC3)CC2)ccc1Oc1ccc(SC)cc1 [Example 51, Methyl-[2-(4-methylsulfanyl-phenoxy)-5-(4-morpholin-4-yl-piperidin-1-yl)-benzyl]-amine]
32 | 8.22 | 7.55 | CNCc1cc(N2CCCN(C3CC3)CC2)ccc1Oc1ccc(SC)cc1 [Example 53, [5-(4-Cyclopropyl-[1,4]diazepan-1-yl)-2-(4-methylsulfanyl-phenoxy)-benzyl]-methyl-amine]
33 | 5.22 | 7.59 | CN(C)C1CCN(C(=O)c2ccc(CNC3CC3)c(Oc3cccnc3)c2)C1 (stereo not shown) [Example 32, [4-Cyclopropylaminomethyl-3-(pyridin-3-yloxy)-phenyl]-(3-dimethylamino-pyrrolidin-1-yl)-methanone]
34 | 8.70 | 7.70 | CNCc1cc(N2CCN(C(C)C)CC2)ccc1Oc1ccc(Cl)c(Cl)c1 [Example 47, [2-(3,4-Dichloro-phenoxy)-5-(4-isopropyl-piperazin-1-yl)-benzyl]-methyl-amine]
35 | – | 7.92 | COCCN(CCOC)Cc1ccc(C(=O)N2CCN(C(C)C)CC2)cc1Oc1ccccc1 [Example 85, (4-{[Bis-(2-methoxy-ethyl)-amino]-methyl}-3-phenoxy-phenyl)-(4-isopropyl-piperazin-1-yl)-methanone]
36 | 9.52 | 8.22 | CNCc1cc(N2CCN(C3CCC3)CC2)ccc1Oc1ccc(SC)cc1 [Example 42, [5-(4-Cyclobutyl-piperazin-1-yl)-2-(4-methylsulfanyl-phenoxy)-benzyl]-methyl-amine]
37 | 6.89 | 8.40 | CNCc1ccc(C(=O)N2CCN(C(C)C)CC2)cc1Oc1cccc(Cl)c1 [Example 38, [3-(3-Chloro-phenoxy)-4-methylaminomethyl-phenyl]-(4-isopropyl-piperazin-1-yl)-methanone]
38 | 8.70 | 9.00 | CNCc1ccc(C(=O)N2CCN(C(C)C)CC2)cc1Oc1ccc(Cl)c(Cl)c1 [Example 37, [3-(3,4-Dichloro-phenoxy)-4-methylaminomethyl-phenyl]-(4-isopropyl-piperazin-1-yl)-methanone]
